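Results reflect a 48-hour exposure of cells in 96-well plates to compound at five concentrations. Here, GI50 denotes the concentration required for 50% inhibition of growth.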 Activity calls are given as the source filed them. Cut-off read from the data, not from the text of the source: active = GI50 up to about 1.1 µM and inactive = higher.
How the values were obtained:
Test in all cases: NCI-60 cell line screen, 48 h
[1] = test system: A549
[2] = test system: EKVX
[3] = test system: HL-60
[4] = test system: Hs-578T
[5] = test system: KM12
[6] = test system: LOX IMVI
[7] = test system: M14
[8] = test system: MCF7
[9] = test system: MDA-MB-435
[10] = test system: MOLT-4
[11] = test system: NCI-H23
[12] = test system: NCI-H460
[13] = test system: OVCAR-5
[14] = test system: RXF 393
[15] = test system: SF-295
[16] = test system: SK-MEL-2
[17] = test system: SNB-75
[18] = test system: TK-10
[19] = test system: U-251
[20] = test system: UO-31

Measured: GI50

COc1cc(OC)c2nc3occc3c(OC)c2c1
inactive: [1] > 100 µM | [2] 64.7 µM | [3] 94.8 µM | [4] > 100 µM | [5] > 100 µM | [6] 83.2 µM | [7] > 100 µM | [8] > 100 µM | [9] > 100 µM | [10] 61.9 µM | [11] > 100 µM | [12] 78 µM | [13] > 100 µM | [14] 80 µM | [15] 62.8 µM | [16] > 100 µM | [17] 67.8 µM | [18] > 100 µM | [19] > 100 µM | [20] 33.7 µM

O=c1[nH]nc(-c2ccccc2)n1/N=C\CC/C=N\n1c(-c2ccccc2)n[nH]c1=O
inactive: [1] > 100 µM | [2] 44.3 µM | [3] 29.2 µM | [4] 24.9 µM | [5] 34.8 µM | [6] 12.9 µM | [7] 20.6 µM | [8] 26.7 µM | [9] 22.7 µM | [10] 20.1 µM | [11] 14.3 µM | [12] > 47.6 µM | [13] 60 µM | [14] > 67.5 µM | [15] 47.3 µM | [16] 20.2 µM | [17] > 69.3 µM | [18] > 100 µM | [19] 40.6 µM | [20] > 67.6 µM

O=C(O)/C=C(/C(=O)O)C12CCN3CC4=CCOC5CC(=O)NC1C5C4CC32 (stereo not given)
inactive: [1] > 100 µM | [2] > 100 µM | [3] > 100 µM | [4] > 100 µM | [5] > 100 µM | [6] > 100 µM | [7] > 100 µM | [8] > 100 µM | [9] > 100 µM | [10] > 100 µM | [11] > 100 µM | [12] > 100 µM | [13] > 100 µM | [14] > 100 µM | [15] > 100 µM | [16] > 100 µM | [17] > 100 µM | [18] > 100 µM | [19] > 100 µM | [20] > 100 µM

COC(=O)C1=CC2CCCC1(O)C(C(C)=O)C2 (stereo not given)
inactive: [1] 51.9 µM | [2] 52.7 µM | [3] 24.2 µM | [4] > 100 µM | [5] > 81.1 µM | [6] 16.6 µM | [7] > 100 µM | [8] > 79.6 µM | [9] > 100 µM | [10] 21.1 µM | [11] > 77.1 µM | [12] > 85.1 µM | [13] > 100 µM | [14] > 70.1 µM | [15] > 67.5 µM | [16] > 68.7 µM | [17] 24.4 µM | [18] > 100 µM | [19] 63.2 µM | [20] 17.3 µM

CNC(=O)NC(CCCCNC(=O)OCc1ccccc1)C(=O)OCc1ccccc1 (stereo not given)
inactive: [1] > 82 µM | [2] 59.8 µM | [3] 26.2 µM | [4] 79.8 µM | [5] > 100 µM | [6] 34.3 µM | [7] 19.5 µM | [8] 53 µM | [9] 19.6 µM | [10] 19 µM | [11] 47.6 µM | [12] > 100 µM | [13] > 61.4 µM | [14] 27.9 µM | [15] 60.8 µM | [16] 17.8 µM | [17] 5.69 µM | [18] 38.3 µM | [19] 65.9 µM | [20] 47.3 µM

Oc1ccc2c3c1OC1c4[nH]ncc4C[C@H]4[C@@H](C2)N(CC2CC2)CC[C@]314 (stereo not given in full)
inactive: [1] > 100 µM | [2] > 100 µM | [3] > 100 µM | [4] > 100 µM | [5] > 100 µM | [6] > 100 µM | [7] > 100 µM | [8] > 100 µM | [9] > 100 µM | [10] > 100 µM | [11] > 100 µM | [12] > 100 µM | [13] > 100 µM | [14] > 100 µM | [15] > 100 µM | [16] > 100 µM | [17] 78.5 µM | [18] > 100 µM | [19] > 100 µM | [20] > 100 µM

OB(O)c1ccccc1C#Cc1ccccc1B(O)O
inactive: [1] 18.5 µM | [2] 16.9 µM | [3] 21.4 µM | [4] 14.6 µM | [5] 13.9 µM | [6] 19 µM | [7] 22.7 µM | [8] 3.13 µM | [9] 19.7 µM | [10] 40.5 µM | [11] 24 µM | [12] 14.4 µM | [13] 27.4 µM | [14] 11.3 µM | [15] 22.9 µM | [16] 11.5 µM | [17] 19 µM | [18] 17.1 µM | [19] 19.2 µM | [20] 20.3 µM

COc1ccc(-c2nnc3nc4ccccc4n3c2O)cc1
inactive: [1] > 100 µM | [2] > 100 µM | [3] > 100 µM | [4] > 100 µM | [5] > 100 µM | [6] > 100 µM | [7] > 100 µM | [8] > 100 µM | [9] > 100 µM | [10] > 100 µM | [11] > 100 µM | [12] > 100 µM | [13] > 100 µM | [14] 7.19 µM | [15] 10 µM | [16] > 100 µM | [17] 41.9 µM | [18] > 100 µM | [19] 90.2 µM | [20] > 100 µM

Cn1c(-c2cccs2)cc(-c2cccs2)c1-c1ccsc1
inactive: [1] 70.5 µM | [2] > 100 µM | [3] > 100 µM | [4] > 100 µM | [5] 29.5 µM | [6] > 100 µM | [7] > 100 µM | [8] 2.03 µM | [9] > 100 µM | [10] > 100 µM | [11] > 100 µM | [12] > 100 µM | [13] > 100 µM | [14] 3.64 µM | [15] > 100 µM | [16] 34.1 µM | [17] > 100 µM | [18] > 100 µM | [19] > 100 µM | [20] > 100 µM

CCO[C@@]12CCC3CC4CC[C@@](OCC)(O1)C4C32 (stereo not given in full)
inactive: [1] > 100 µM | [2] > 100 µM | [3] > 100 µM | [4] > 100 µM | [5] > 100 µM | [6] > 100 µM | [7] > 100 µM | [8] > 100 µM | [9] > 100 µM | [10] > 100 µM | [11] > 100 µM | [12] > 100 µM | [13] > 100 µM | [14] > 100 µM | [15] > 100 µM | [16] > 100 µM | [17] > 100 µM | [18] > 100 µM | [19] > 100 µM | [20] > 100 µM

Reference: ChEMBL document CHEMBL1201862, “PubChem BioAssay data set” (2004)
